These results are taken from publication PMC6286365 (Scientific Reports, 2018).

Series [1] can be described thus: Metabolic stability in mouse liver microsomes with NADPH. The class given is in vitro ADME. As to conditions: pH 7.4, 1 μM compound, read-out: percent remaining. The method, then:
One potential liability when using chemical probes in vivo is lack of metabolic stability which structurally inactivates the compound before it can reach its molecular target. […] Percent of drug remaining over time was determined by liquid chromatography–tandem mass spectrometry analysis (LC/MS/MS).
Metabolic stability assay was conducted in mouse or human liver microsomes as we have described previously with minor modifications. Briefly, the reaction was carried out using potassium phosphate buffer (100 mM, pH 7.4), in the presence of an NADPH regenerating system (compound final concentration was 1 μM; 0.2 mg/mL microsomes). Compound disappearance was monitored over time using a liquid chromatography and tandem mass spectrometry (LC/MS/MS) method. Chromatographic analysis was performed using an Accela ultra high-performance system consisting of an analytical pump and an autosampler coupled with a TSQ Vantage mass spectrometer (Thermo Fisher Scientific Inc., Waltham, MA). […] The mobile phase consisted of 0.1% formic acid in acetonitrile and 0.1% formic acid in water with gradient elution.
On the technique in general: Liver microsomes are a subcellular fraction often used to study metabolism.

Series [2] concerns GFAP-GFP mice. The experiment in a line: Striatal IL-1β brain inflammation model: GFP-labeled astrocyte-derived EVs in plasma. It is filed as in vivo, mouse. Conditions: 10 mg/kg IP 0.5 h before IL-1β; 2 h post IL-1β. The method, then:
As we have previously shown[11],[18], striatal injection of IL-1β in mice expressing GFP-GFAP in astroglia triggers a release of GFP-labelled EVs that rapidly enter into plasma, resulting in cytokine upregulation in liver and peripheral immune cell migration into brain[11]. […] There were two groups of mice: the first group was sacrificed 2 h after IL-1β administration by heart puncture, and GFP-labeled circulating EVs were measured with liver cytokines. […] Counting of astrocyte-released EV (GFP+) from blood and liver cytokine analysis was conducted by single injection of DPTIP. Although release of EVs from astrocytes can be initiated immediately after intracranial injection of IL-1β, infiltration of neutrophils in brain parenchyma occurred 12h-24h after the IL-1β injection. […] Western analysis using the isolated exosomal fraction confirmed the presence of CD63 (transmembrane protein), TSG101 (cytosolic protein) and Flotilin-1 (lipid raft associated protein), commonly used EV markers[19],[20]. The GFP signal was an indication that these EVs originated in brain[11] while lack of mitofilin and α-actinin signals indicated the vesicles were not of mitochondrial[21] or cytoskeletal[22] origin respectively (Fig. 6B).
Compounds were given 0.5 h before IL-1β dosing. One group of mice was sacrificed 2 h after IL-1β administration to determine effects of the various treatments on extracellular vesicles (EVs) releases from brain and liver cytokine analysis. […] (C) Liver cytokine levels under different treatments as measured by qRT-PCR of RNA isolated from fresh frozen liver tissue. Samples were analyzed in triplicate. **p < 0.01 and *p < 0.05 compared to saline control; ^##p < 0.01 and ^#p < 0.05 compared to IL1-β group. (D) Neutrophil levels in brain as measured by immunohistochemistry using coronal brain sections and Ly6b antibody. (E) Quantitation of (D); **p < 0.01 compared to saline control; ^##p < 0.01 compared to IL1-β group. […]

Series [3] concerns GFAP-GFP mice. Put plainly: Striatal IL-1β brain inflammation model: neutrophil infiltration into brain (Ly6b immunohistochemistry). Conditions: 10 mg/kg IP 0.5 h before and 12 h after IL-1β; 24 h. It is filed as in vivo, mouse. The method, then:
As we have previously shown[11],[18], striatal injection of IL-1β in mice expressing GFP-GFAP in astroglia triggers a release of GFP-labelled EVs that rapidly enter into plasma, resulting in cytokine upregulation in liver and peripheral immune cell migration into brain[11]. […] There were two groups of mice: the first group was sacrificed 2 h after IL-1β administration by heart puncture, and GFP-labeled circulating EVs were measured with liver cytokines. […] Counting of astrocyte-released EV (GFP+) from blood and liver cytokine analysis was conducted by single injection of DPTIP. […]
Compounds were given 0.5 h before IL-1β dosing. […] (C) Liver cytokine levels under different treatments as measured by qRT-PCR of RNA isolated from fresh frozen liver tissue. Samples were analyzed in triplicate. **p < 0.01 and *p < 0.05 compared to saline control; ^##p < 0.01 and ^#p < 0.05 compared to IL1-β group. (D) Neutrophil levels in brain as measured by immunohistochemistry using coronal brain sections and Ly6b antibody. (E) Quantitation of (D); **p < 0.01 compared to saline control; ^##p < 0.01 compared to IL1-β group.
Coronal brain sections (30 µm) were prepared using a cryostat microtome (Leica). […] Stereological quantitation was performed using a one-in-five series (270-µm spacing), from the rostral point of bregma +1.10 mm to the caudal point of bregma −0.58 mm as previously described.

For orientation: share remaining means what is left of the initial amount, in per cent. Turning to `COc1cc(-c2nc(-c3cccs3)c(-c3ccccc3)[nH]2)cc(OC)c1O` [DPTIP, 2,6-Dimethoxy-4-(5-Phenyl-4-Thiophen-2-yl-1H-Imidazol-2-yl)-Phenol], the share remaining at 1 h, 1 μM in series [1] was 100%. In addition, in the series with GFAP-GFP mice [2], the “reduction of number of astrocyte-derived EVs” value worked out at 51 ± 13%. In addition, the “reduction of neutrophil migration into brain compared to IL-1β-treated animals” value in the series with GFAP-GFP mice [3] is listed as 80 ± 23%.
